In the NIST ThermoML archive (doi:10.1016/j.fluid.2017.12.010):

Assay: xn = mol fraction of the nth substance listed
Conditions: Liquid, Vibrating tube method

CCCCCCCCCCCC [dodecane] + CCCCCCCCCC
Conditions	mass density [kg/m3]
303.31 K, 1000 kPa, x2 = 0.2297	739
303.32 K, 5000 kPa, x2 = 0.2297	742
303.32 K, 10000 kPa, x2 = 0.2297	745
303.33 K, 20000 kPa, x2 = 0.2297	752
303.33 K, 30000 kPa, x2 = 0.2297	759
303.34 K, 40000 kPa, x2 = 0.2297	765
303.35 K, 100 kPa, x2 = 0.2297	738
303.35 K, 60000 kPa, x2 = 0.2297	775
303.35 K, 80000 kPa, x2 = 0.2297	785
303.35 K, 100000 kPa, x2 = 0.2297	794
303.39 K, 100 kPa, x2 = 0.4436	734
303.39 K, 1000 kPa, x2 = 0.4436	735
303.39 K, 5000 kPa, x2 = 0.4436	738
303.39 K, 10000 kPa, x2 = 0.4436	742
303.41 K, 20000 kPa, x2 = 0.4436	749
303.41 K, 40000 kPa, x2 = 0.4436	761
303.41 K, 80000 kPa, x2 = 0.4436	782
303.41 K, 99990 kPa, x2 = 0.4436	791
303.42 K, 30000 kPa, x2 = 0.4436	755
303.42 K, 60000 kPa, x2 = 0.4436	772
303.43 K, 100 kPa, x2 = 0.6433	730
303.43 K, 1000 kPa, x2 = 0.6433	731
303.43 K, 20000 kPa, x2 = 0.6433	745
303.43 K, 30000 kPa, x2 = 0.6433	752
303.43 K, 40000 kPa, x2 = 0.6433	758
303.43 K, 60000 kPa, x2 = 0.6433	769
303.43 K, 80000 kPa, x2 = 0.6433	779
303.43 K, 100000 kPa, x2 = 0.6433	788
303.44 K, 5000 kPa, x2 = 0.6433	734
303.44 K, 10000 kPa, x2 = 0.6433	738
303.45 K, 100 kPa, x2 = 0.7841	727
303.45 K, 10000 kPa, x2 = 0.7841	735
303.45 K, 20000 kPa, x2 = 0.7841	742
303.45 K, 30000 kPa, x2 = 0.7841	749
303.45 K, 40000 kPa, x2 = 0.7841	755
303.45 K, 60000 kPa, x2 = 0.7841	766
303.45 K, 80000 kPa, x2 = 0.7841	776
303.45 K, 100000 kPa, x2 = 0.7841	785
303.46 K, 1000 kPa, x2 = 0.7841	728
303.47 K, 5000 kPa, x2 = 0.7841	731
312.89 K, 100 kPa, x2 = 0	736
312.89 K, 1000 kPa, x2 = 0	737
312.9 K, 5000 kPa, x2 = 0	740
312.9 K, 10000 kPa, x2 = 0	744
312.9 K, 20000 kPa, x2 = 0	751
312.9 K, 30000 kPa, x2 = 0	757
312.9 K, 40000 kPa, x2 = 0	763
312.9 K, 50000 kPa, x2 = 0	769
312.9 K, 60000 kPa, x2 = 0	774
312.9 K, 70000 kPa, x2 = 0	780
312.9 K, 80000 kPa, x2 = 0	784
312.9 K, 90000 kPa, x2 = 0	789
312.9 K, 100000 kPa, x2 = 0	793
313.23 K, 100 kPa, x2 = 0.2297	732
313.24 K, 1000 kPa, x2 = 0.2297	732
313.24 K, 5000 kPa, x2 = 0.2297	736
313.24 K, 10000 kPa, x2 = 0.2297	740
313.24 K, 20000 kPa, x2 = 0.2297	747
313.24 K, 30000 kPa, x2 = 0.2297	753
313.24 K, 40000 kPa, x2 = 0.2297	760
313.24 K, 60000 kPa, x2 = 0.2297	771
313.25 K, 80000 kPa, x2 = 0.2297	781
313.25 K, 100000 kPa, x2 = 0.2297	790
313.3 K, 30000 kPa, x2 = 0.4436	750
313.3 K, 40000 kPa, x2 = 0.4436	756
313.3 K, 100000 kPa, x2 = 0.4436	787
313.31 K, 100 kPa, x2 = 0.4436	728
313.31 K, 1000 kPa, x2 = 0.4436	729
313.31 K, 10000 kPa, x2 = 0.4436	736
313.31 K, 20000 kPa, x2 = 0.4436	743
313.31 K, 60000 kPa, x2 = 0.4436	767
313.31 K, 80000 kPa, x2 = 0.4436	778
313.32 K, 5000 kPa, x2 = 0.4436	732
313.36 K, 100 kPa, x2 = 0.6433	724
313.36 K, 1000 kPa, x2 = 0.6433	725
313.36 K, 10000 kPa, x2 = 0.6433	732
313.36 K, 20000 kPa, x2 = 0.6433	740
313.37 K, 100 kPa, x2 = 0.7841	721
313.37 K, 1000 kPa, x2 = 0.7841	722
313.37 K, 5000 kPa, x2 = 0.6433	728
313.37 K, 5000 kPa, x2 = 0.7841	725
313.37 K, 10000 kPa, x2 = 0.7841	729
313.37 K, 30000 kPa, x2 = 0.6433	746
313.37 K, 40000 kPa, x2 = 0.6433	753
313.37 K, 40000 kPa, x2 = 0.7841	750
313.37 K, 60000 kPa, x2 = 0.7841	762
313.37 K, 80000 kPa, x2 = 0.7841	772
313.38 K, 20000 kPa, x2 = 0.7841	737
313.38 K, 30000 kPa, x2 = 0.7841	744
313.38 K, 60000 kPa, x2 = 0.6433	764
313.38 K, 80000 kPa, x2 = 0.6433	774
313.38 K, 100000 kPa, x2 = 0.6433	784
313.38 K, 100000 kPa, x2 = 0.7841	781
322.83 K, 100 kPa, x2 = 0	727
322.83 K, 1000 kPa, x2 = 0	728
322.83 K, 5000 kPa, x2 = 0	732
322.83 K, 10000 kPa, x2 = 0	736
322.83 K, 20000 kPa, x2 = 0	743
322.83 K, 30000 kPa, x2 = 0	750
322.83 K, 40000 kPa, x2 = 0	756
322.83 K, 50000 kPa, x2 = 0	762
322.83 K, 60000 kPa, x2 = 0	768
322.83 K, 70000 kPa, x2 = 0	773
322.83 K, 80000 kPa, x2 = 0	778
322.83 K, 90000 kPa, x2 = 0	783
322.83 K, 100000 kPa, x2 = 0	787
323.08 K, 100 kPa, x2 = 0.2297	723
323.08 K, 1000 kPa, x2 = 0.2297	724
323.08 K, 5000 kPa, x2 = 0.2297	727
323.08 K, 10000 kPa, x2 = 0.2297	731
323.08 K, 20000 kPa, x2 = 0.2297	739
323.08 K, 30000 kPa, x2 = 0.2297	746
323.08 K, 40000 kPa, x2 = 0.2297	752
323.09 K, 100 kPa, x2 = 0.4436	719
323.09 K, 60000 kPa, x2 = 0.2297	764
323.09 K, 80000 kPa, x2 = 0.2297	774
323.09 K, 100010 kPa, x2 = 0.2297	784
323.1 K, 1000 kPa, x2 = 0.4436	720
323.1 K, 5000 kPa, x2 = 0.4436	724
